Data from US20230286973A1, “PROTEIN SECRETION INHIBITORS” (KEZAR LIFE SCIENCES, priority 2020, published 2023).

Assays:
[1] = Liver Microsome Stability Assay (mouse); conditions: mouse liver microsomes, with NADPH, 1.0 uM compound
Experimental: (§1) Stability of a compound was assessed in the presence of liver microsomes from various sources—mouse, rat, monkey and human liver microsomes. 1.0 uM compound, 0.4% DMSO in 0.1 M Potassium Phosphate with 1.0 mg/mL liver microsomes, were incubated at 37° C. with or without 1 mM NADPH. The samples were quenched at 0, and 30 minutes.

[2] = tested on: multiple myeloma cell line U266B1; assay: U266 Cell Viability Assay; assay type: cell-based, human; conditions: Homo sapiens, U-266, 48 h, U266B1 cells, Celltiter-Glo
In short: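 CellTiter-Glo luminescence was read after a 48 h compound exposure (37 °C, 5% CO2) of human U266B1 myeloma cells grown in 10% FBS-supplemented RPMI 1640. Data for structures shown without defined stereochemistry refer to stereoisomer mixtures.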

[3] = Liver Microsome Stability Assay (rat); conditions: rat liver microsomes, with NADPH, 1.0 uM compound
Experimental: as §1

[4] = tested on: PD1-ss+10aa/Gaussia Luciferase; assay: Dox-Induced PD1-ss-Gluc Assay; assay type: cell-based; conditions: 24 hr Dox induction; 293FRT/TO cells; read-out: 24 hr Dox Inducible PD1ssGluc 293FRT/TO: Mean IC50
In short: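 The cell line was made by transfecting Flp-In 293 T-REx cells with a PD1 signal sequence+10aa–Gaussia luciferase fusion under T-REx control and selecting with hygromycin and blasticidin. Cells were seeded, and next day compound plus doxycycline was added at 37 °C, 5% CO2.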

[5] = tested on: multiple myeloma cell line NCI-H929; assay: H929 Cell Viability Assay; assay type: cell-based, human; conditions: Homo sapiens, NCI-H929, 48 h, NCI-H929 cells, Celltiter-Glo
In short: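 Luminescent CellTiter-Glo read-out of viability after a 48 h exposure (37° C, 5% CO2) of NCI-H929 myeloma cells to compound dilutions in RPMI 1640 plus 10% FBS. Data for structures drawn without stereochemistry refer to stereoisomer mixtures.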

[6] = tested on: IL-2-FL/Gaussia Luciferase; assay: Dox Induced IL2-FL-Gluc Assay; assay type: cell-based; conditions: for IC50: 24 hr Dox induction, 293FRT/TO cells, read-out: 24 hr Dox Inducible IL2FLGluc 293FRT/TO: Mean IC50; for 24 hr Dox Inducible IL2FLGluc 293FRT/TO: IL2/PD1: ratio of IL2FLGluc IC50 to PD1ssGluc IC50
In short: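 Compounds in DMSO/medium with doxycycline were applied to a 293 T-REx stable line expressing an IL-2 (aa 1-153)–Gaussia luciferase fusion under tetracycline-regulated control, cells seeded one day earlier; incubation at 37 °C, 5% CO2. Structures drawn without stereochemistry were tested as stereoisomer mixtures.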

[7] = Liver Microsome Stability Assay (human); conditions: human liver microsomes, with NADPH, 1.0 uM compound
Experimental: as §1

[8] = Liver Microsome Stability Assay (monkey); conditions: monkey liver microsomes, with NADPH, 1.0 uM compound
Experimental: as §1

[9] = tested on: HER3-ss+4aa/Gaussia Luciferase; assay: Dox-Induced Her3-ss-Gluc Assay; assay type: cell-based; conditions: 24 hr Dox induction; 293FRT/TO cells; read-out: 24 hr Dox Inducible Her3(ss + 4)Gluc 293FRT/TO: Mean IC50
In short: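 Compounds were diluted in DMSO/media containing doxycycline. They were added to Flp-In 293 T-REx cells plated the previous day, then incubated at 37 °C under 5% CO2. These cells stably express, under T-REx control, Gaussia luciferase fused to the HER3 signal sequence plus 4 amino acids.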

[10] = tested on: TNFα-FL/Gaussia Luciferase; assay: Dox Induced TNFα-FL-Gluc Assay; assay type: cell-based; conditions: for IC50: 24 hr Dox induction, 293FRT/TO cells, read-out: 24 hr Dox Inducible TNFaFLGluc 293FRT/TO: Mean IC50; for 24 hr Dox Inducible TNFaFLGluc 293FRT/TO: TNF/PD1: ratio of TNFaFLGluc IC50 to PD1ssGluc IC50
In short: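 Compound was added with doxycycline to cells plated a day earlier, incubating at 37° C under 5% CO2. The reporter line is 293 T-REx expressing a TNFα (1-233)–Gaussia luciferase fusion under tetracycline-regulated control.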

| Structure (SMILES) | Liver Microsome Stability (Multiple Species): Mouse - % Remaining after 30 min w/NADPH [1] | EC50 [2] | Liver Microsome Stability (Multiple Species): Rat - % Remaining after 30 min w/NADPH [3] | IC50 [4] | EC50 [5] | IC50 [6] | 24 hr Dox Inducible IL2FLGluc 293FRT/TO: IL2/PD1 [6] | Liver Microsome Stability (Multiple Species): Human - % Remaining after 30 min w/NADPH [7] | Liver Microsome Stability (Multiple Species): Monkey - % Remaining after 30 min w/NADPH [8] | IC50 [9] | IC50 [10] | 24 hr Dox Inducible TNFaFLGluc 293FRT/TO: TNF/PD1 [10] |
| --- | --- | --- | --- | --- | --- | --- | --- | --- | --- | --- | --- | --- |
| CC(=O)N1CCOC(/C=C/c2csc(NC(=O)c3cccn3Cc3ccncc3)n2)C1 (stereo not drawn) [Compound B10, (E)-N-(4-(2-(4-acetylmorpholin-2-yl)vinyl)thiazol-2-yl)-1-(pyridin-4-ylmethyl)-1H-pyrrole-2-carboxamide] | 9.22% | > 25 µM | 2.71% | 20000 nM | > 25 µM | > 25 µM | 1.3 | 1.05% | 0.1% | > 25 µM | > 25 µM | >1.25 |
| O=C1NC(/C=C/c2csc(NC(=O)c3cccn3Cc3ccncc3)n2)CO1 (stereo not drawn) [Compound B12] | 1.41% | > 25 µM | 11% | > 25000 nM | > 25 µM | > 25 µM | 1 | 3.28% | 4.16% | > 25 µM | > 25 µM | <=>1.00 |
| O=C1CCCC(/C=C/c2csc(NC(=O)c3cccn3Cc3ccncc3)n2)N1 (stereo not drawn) [Compound B13, (E)-N-(4-(2-(6-oxopiperidin-2-yl)vinyl)thiazol-2-yl)-1-(pyridin-4-ylmethyl)-1H-pyrrole-2-carboxamide] | 4.96% | > 25 µM | 6.37% | > 25000 nM | > 25 µM | > 25 µM | 1 | 0.48% | 0.6% | > 25 µM | > 25 µM | <=>1.00 |
| O=C(Nc1nc(/C=C/C2CN(c3ccccc3)CCO2)cs1)c1cccn1Cc1ccncc1 (stereo not drawn) [Compound B18, (E)-N-(4-(2-(4-phenylmorpholin-2-yl)vinyl)thiazol-2-yl)-1-(pyridin-4-ylmethyl)-1H-pyrrole-2-carboxamide] | 3.02% | > 25 µM | 2.09% | 88.2 nM | > 25 µM | 1.56 µM | 18 | 0.82% | 0.38% | 1.1 µM | 4.7 µM | 53.3 |
| Cc1ocnc1/C=C/c1csc(NC(=O)c2cccn2Cc2ccncc2)n1 [Compound B33, (E)-N-(4-(2-(5-methyloxazol-4-yl)vinyl)thiazol-2-yl)-1-(pyridin-4-ylmethyl)-1H-pyrrole-2-carboxamide] | 4.32% | > 25 µM | 0.28% | 63.7 nM | 24.1 µM | 9.19 µM | 140 | 0.68% | 1.26% | 5.56 µM | > 25 µM | >392 |
| O=C(Nc1nc(/C=C/c2ncco2)cs1)c1cccn1Cc1ccncc1 [Compound B34, (E)-N-(4-(2-(oxazol-2-yl)vinyl)thiazol-2-yl)-1-(pyridin-4-ylmethyl)-1H-pyrrole-2-carboxamide] | 0.97% | > 25 µM | 0.87% | 778 nM | > 25 µM | > 25 µM | >32 | 0.75% | 1.77% | > 25 µM | > 25 µM | >32.1 |
| Cc1cnc(/C=C/c2csc(NC(=O)c3cccn3Cc3ccncc3)n2)o1 [Compound B35, (E)-N-(4-(2-(5-methyloxazol-2-yl)vinyl)thiazol-2-yl)-1-(pyridin-4-ylmethyl)-1H-pyrrole-2-carboxamide] | 2.61% | > 25 µM | 0.46% | 466 nM | > 25 µM | > 25 µM | >54 | 2.88% | 1.04% | > 25 µM | > 25 µM | >53.7 |
| CC(C)(C)c1nc(/C=C/c2csc(NC(=O)c3cccn3Cc3ccncc3)n2)co1 [Compound B36, (E)-N-(4-(2-(2-(tert-butyl)oxazol-4-yl)vinyl)thiazol-2-yl)-1-(pyridin-4-ylmethyl)-1H-pyrrole-2-carboxamide] | 9.8% | 7.33 µM | 2.95% | 173 nM | 7.03 µM | 2.51 µM | 14 | 0.7% | 3.93% | 0.773 µM | 3.75 µM | 21.7 |
